In brackets after ≈: the same amount, converted by molar mass. Like-named read-outs stand apart in the source and are kept apart here.
How the values were obtained:
S. aureus = test: MIC99 against S. aureus (Table 2-1); type: cell-based, Staphylococcus aureus
MRSA = test: MIC99 against MRSA (Table 2-1); type: cell-based, Staphylococcus aureus
red blood cell [1] = test: Hemolytic activity / in vitro toxicity (HC50); details: for HC50: Table 2-1, in vitro toxicity; for Hemolytic concentration, HC50: Table 10
S. aureus DM4001 = test: SYTOX green membrane permeabilization assay, S. aureus; details: 10 μM; for SYTOX green staining of bacteria (fluorescence microscopy): FIG. 14; for Membrane permeabilization (SYTOX green fluorescence emission): fluorescence spectroscopy
Procedure: S. aureus DM4001 was harvested at early exponential phase and suspended in 40 mM PBS until OD620 of 0.09 was obtained. Then, the bacteria suspension was incubated with 3 μM of SYTOX Green in dark. The mixture was monitored in a stirring cuvette at an excitation wavelength of 504 nm and at an emission wavelength of 523 nm until the fluorescence was stable. Then, 10 μM of AM compounds were added and the changed of fluorescence emissions were monitored.

red blood cell [2] = tested on: red blood cell
[3] = tested on: Clinical Staphylococcus aureus DM4001; test: Cytoplasmic membrane depolarization (DiSC3 dye); type: cell-based; details: DiSC3 fluorescence; AM-016 at 12.5 ug/mL
Procedure: Membrane potential-sensitive dye 3,3′-dipropylthiadicarbocyanine iodide (DiSC3) was used to determine the cytoplasmic membrane depolarization activity of AM-016. An overnight culture of clinical Staphylococcus aureus DM4001(source: Eye) was allowed to grow in Muller-Hinton broth (MHB) to OD620=0.3-0.4. Then, the bacteria was collected by centrifugation at 2800 r.p.m at 37° C. for 30 minutes and washed with 5 mM HEPES buffer at pH7. […] The cell suspension was then incubated with 0.1M KCl and 0.4 μM DiSC3 at 37° C. for 30 minutes. Dye uptake was monitored by fluorospectrometry (Photon Technology International (PTI) Photomultiplier Detection Systems, model 814) in a stirred cuvette until the fluorescence signal was stable. The desired concentration of AM-016 was added and the fluorescence was monitored at an excitation wavelength of 622 nm and at an emission wavelength of 670 nm. A blank with dye in the absence of bacteria with same concentration of AM-016 was used as a control.

[4] = tested on: Staphylococcus aureus ATCC29213; test: MIC against S. aureus ATCC29213; type: cell-based; details: for MIC: Table 5
MRSA DM21455 [5] = test: MIC against MRSA DM21455; type: cell-based, Staphylococcus aureus; details: for Minimum inhibition concentration (MIC): MRSA DM21455, Source: Eye; for MIC: Staphylococcus aureus
[6] = tested on: Pseudomonas aeruginosa ATCC27853; test: MIC against Pseudomonas aeruginosa ATCC27853; type: cell-based
MRSA DM09808R = test: MIC against MRSA DM09808R; type: cell-based, Staphylococcus aureus; details: for MIC: Staphylococcus aureus
Gram-positive bacteria = test: Antimicrobial activity against Gram-positive bacteria (statement); type: cell-based; details: at 50 ug/ml
[7] = tested on: Mycobacterium tuberculosis
[8] = pH value in different media; type: physicochemical
Source text: The pH values were obtained using an electronic pH meter.

[9] = type: physicochemical; details: pH 7
Procedure: The solvent was added stepwise until the compound was dissolved completely. Then, the stock solution was diluted to series of diluents and the absorbance of each diluent was determined.

[10] = tested on: Bacillus cereus ATCC11778; test: MIC against Bacillus cereus ATCC11778; type: cell-based; details: for MIC: Table 5
[11] = tested on: Klebsiella pneumoniae ATCC10031; test: MIC against Klebsiella pneumoniae ATCC10031; type: cell-based
[12] = tested on: Clinical Staphylococcus aureus DM4001; test: MIC against clinical S. aureus DM4001; type: cell-based; parameters: MIC: unit not given here; details: Clinical S. aureus DM4001, Source: Eye; for MIC: Table 5
[13] = tested on: Staphylococcus aureus ATCC 700699 (VISA); test: MIC against S. aureus ATCC 700699 (MRSA-700699, VISA); type: cell-based; details: for MIC: Staphylococcus aureus
MRSA DR42412 = test: MIC against MRSA DR42412; type: cell-based, Staphylococcus aureus; details: Staphylococcus aureus
MRSA DM21595 = test: MIC against MRSA DM21595; type: cell-based, Staphylococcus aureus; details: Staphylococcus aureus
[14] = tested on: Mycobacterium tuberculosis; test: microbe, parasite or virus in culture; details: read-out: MIC100
[15] = tested on: Enterococcus faecalis 11: DS6527 (VRE 208/11); test: MIC against Enterococcus faecalis DS6527 (VRE 208/11); type: cell-based; details: E. faecalis DS6527 (VRE 208/11); no unit in table (Example 10 MICs in μg/ml)
[16] = tested on: Enterococcus faecalis 11: DU9345 VRE; test: MIC against Enterococcus faecalis DU9345 VRE; type: cell-based; details: E. faecalis DU9345 VRE; no unit in table (Example 10 MICs in μg/ml)
[17] = tested on: Staphylococcus aureus 10: DB6506 (MRSA04/10) (VISA); test: MIC against S. aureus DB6506 (VISA); type: cell-based; details: no unit in table (Example 10 MICs in μg/ml)
[18] = tested on: Enterococcus faecalis ATCC 51299 VRE; test: MIC against Enterococcus faecalis ATCC 51299 VRE; type: cell-based; details: E. faecalis ATCC 51299 VRE; no unit in table (Example 10 MICs in μg/ml)
MRSA DM21455 [19] = test: Drug resistance test, 20 serial passages; type: cell-based, Staphylococcus aureus; details: MRSA DM21455, FIG. 7

SMILES: COc1c(O)cc2oc3cc(O)c(CC=C(C)C)c(O)c3c(=O)c2c1CC=C(C)C [AM-000, alpha-mangostin, reference compound]
- MIC99 S. aureus (S. aureus): 1.56 µg/mL (≈ 3.8 µM)
- MIC99 MRSA (MRSA): 1.56 µg/mL (≈ 3.8 µM)
- HC50 (red blood cell [1]): 9 µg/mL
- Hemolytic concentration, HC50 (red blood cell [1]): 6.5 µg/mL

SMILES: COc1c(OCCCCBr)cc2oc3cc(OCCCCBr)c(CC=C(C)C)c(O)c3c(=O)c2c1CC=C(C)C [AM-005]
- SYTOX green staining of bacteria (fluorescence microscopy) (S. aureus DM4001): no significant staining
- Membrane permeabilization (SYTOX green fluorescence emission) (S. aureus DM4001): not able to trigger the membrane permeabilization
- HC50 (red blood cell [2]): >200 µg/mL
- MIC99 S. aureus (S. aureus): >200 µg/mL
- MIC99 MRSA (MRSA): >200 µg/mL
- Cytoplasmic membrane depolarization [3]: does not depolarize the membrane
- Minimum inhibition concentration (MIC) [4]: >50 µg/mL
- Minimum inhibition concentration (MIC) (MRSA DM21455 [5]): >50 µg/mL
- Minimum inhibition concentration (MIC) [6]: >50 µg/mL
- Minimum inhibition concentration (MIC) (MRSA DM09808R; MRSA DM09808R, Source: Eye): >50 µg/mL
- Activity against Gram-positive bacteria (Gram-positive bacteria): did not show activity

SMILES: COc1c(OCCCCN2CCOCC2)cc2oc3cc(OCCCCN4CCOCC4)c(CC=C(C)C)c(O)c3c(=O)c2c1CC=C(C)C [AM-009]
- SYTOX green staining of bacteria (fluorescence microscopy) (S. aureus DM4001): no significant staining
- Membrane permeabilization (SYTOX green fluorescence emission) (S. aureus DM4001): not able to trigger the membrane permeabilization
- MIC99 S. aureus (S. aureus): >200 µg/mL
- MIC99 MRSA (MRSA): >200 µg/mL
- HC50 (red blood cell [1]): >200 µg/mL
- Hemolytic concentration, HC50 (red blood cell [1]): >1000 µg/mL
- Minimum inhibition concentration (MIC) [4]: >25 µg/mL
- Minimum inhibition concentration (MIC) (MRSA DM21455 [5]): >25 µg/mL
- MIC100 [7]: 8 µM
- MIC100 ([7]; value in brackets): 5.54 µg/mL

SMILES: CC(C)=CCc1c(O)cc2oc3cc(O)c(O)c(CC=C(C)C)c3c(=O)c2c1O [AM-013, Gamma-mangostin, reference compound]
- MIC100 [7]: 125 µM
- MIC100 ([7]; value in brackets): 49.55 µg/mL

SMILES: CCN(CC)CCCCCCCCOc1cc2oc3cc(OCCCCCCCCN(CC)CC)c(OC)c(CC=C(C)C)c3c(=O)c2c(O)c1CC=C(C)C [AM-043]
- Membrane permeabilization (SYTOX green fluorescence emission) (S. aureus DM4001): weaker membrane permeabilization effect

SMILES: CCN(CC)CCCCCCCCCCOc1cc2oc3cc(OCCCCCCCCCCN(CC)CC)c(OC)c(CC=C(C)C)c3c(=O)c2c(O)c1CC=C(C)C [AM-044]
- SYTOX green staining of bacteria (fluorescence microscopy) (S. aureus DM4001): no significant staining
- Membrane permeabilization (SYTOX green fluorescence emission) (S. aureus DM4001): not able to trigger the membrane permeabilization

SMILES: CCN(CC)CCCCCCCCCCCCOc1cc2oc3cc(OCCCCCCCCCCCCN(CC)CC)c(OC)c(CC=C(C)C)c3c(=O)c2c(O)c1CC=C(C)C [AM-045]
- SYTOX green staining of bacteria (fluorescence microscopy) (S. aureus DM4001): no significant staining
- Membrane permeabilization (SYTOX green fluorescence emission) (S. aureus DM4001): not able to trigger the membrane permeabilization

SMILES: COC(=O)C(CCCNC(=N)N)NC(=O)COc1cc2oc3cc(OCC(=O)NC(CCCNC(=N)N)C(=O)OC)c(OC)c(CC=C(C)C)c3c(=O)c2c(O)c1CC=C(C)C (stereo not drawn) [AM-052]
- pH ([8]; Saline, 50 μg/ml compound): 5.33 ± 0.05
- pH ([8]; Saline, 100 μg/ml compound): 5.33 ± 0.01
- pH ([8]; Water, 50 μg/ml compound): 6.52 ± 0.29
- pH ([8]; Water, 100 μg/ml compound): 7.66 ± 0.33
- HC50 (red blood cell [2]): 238 µg/mL
- Solubility [9]: not soluble
- MIC99 [10]: 3.125 µg/mL (≈ 3.6 µM)
- MIC99 [4]: 6.25 µg/mL (≈ 7.21 µM)
- MIC99 [11]: 6.25 µg/mL (≈ 7.21 µM)
- MIC99 (MRSA DM21455 [5]; Methicillin-resistant S. aureus DM21455, Source: Eye): 1.56 µg/mL (≈ 1.8 µM)
- MIC99 [6]: 12.5 µg/mL (≈ 14.4 µM)
- MIC99 (MRSA DM09808R; Methicillin-resistant S. aureus DM09808R): 3.125 µg/mL (≈ 3.6 µM)

SMILES: COc1c(O)cc2oc3cc(OCC(=O)O)c(CC=C(C)C)c(O)c3c(=O)c2c1CC=C(C)C [AM-071]
- Minimum inhibition concentration (MIC) [12]: 25 µg/mL (≈ 53.4 µM)
- MIC [12]: 53.36
- Minimum inhibition concentration (MIC) [10]: 6.25 µg/mL (≈ 13.3 µM)
- MIC [10]: 13.34 µM (≈ 6.25 µg/mL)
- Hemolytic concentration, HC50 (red blood cell [1]): 37.5 µg/mL
- Minimum inhibition concentration (MIC) [4]: 12.5 µg/mL (≈ 26.7 µM)
- MIC [4]: 26.68 µM (≈ 12.5 µg/mL)
- Minimum inhibition concentration (MIC) (MRSA DM21455 [5]): 25 µg/mL (≈ 53.4 µM)
- MIC100 [7]: 250 µM

SMILES: COc1c(OCC(=O)O)cc2oc3cc(O)c(CC=C(C)C)c(O)c3c(=O)c2c1CC=C(C)C [AM-072]
- Minimum inhibition concentration (MIC) [12]: 6.25 µg/mL (≈ 13.3 µM)
- MIC [12]: 13.34
- Minimum inhibition concentration (MIC) [10]: 6.25 µg/mL (≈ 13.3 µM)
- MIC [10]: 13.34 µM (≈ 6.25 µg/mL)
- Minimum inhibition concentration (MIC) [4]: 6.25 µg/mL (≈ 13.3 µM)
- MIC [4]: 13.34 µM (≈ 6.25 µg/mL)
- Minimum inhibition concentration (MIC) (MRSA DM21455 [5]): 6.25 µg/mL (≈ 13.3 µM)
- MIC100 [7]: 250 µM

SMILES: CCCCCCCCCC(=O)N[C@@H](Cc1c[nH]c2ccccc12)C(=O)N[C@H](CC(N)=O)C(=O)N[C@@H](CC(=O)O)C(=O)N[C@@H]1C(=O)NCC(=O)N[C@@H](CCCN)C(=O)N[C@@H](CC(=O)O)C(=O)N[C@H](C)C(=O)N[C@@H](CC(=O)O)C(=O)NCC(=O)N[C@H](CO)C(=O)N[C@@H]([C@H](C)CC(=O)O)C(=O)N[C@@H](CC(=O)c2ccccc2N)C(=O)O[C@@H]1C [Daptomycin, reference compound]
- MIC ([13]; MRSA-700699, Example 10, Mueller Hinton broth dilution, read-out: MIC): 0.78 µg/mL (≈ 0.481 µM)
- MIC (MRSA DR42412; MRSA-42412 (Sputum), Example 10, Mueller Hinton broth dilution, read-out: MIC): 0.195 µg/mL (≈ 0.12 µM)
- MIC (MRSA DM21595; MRSA-21595 (Wound), Example 10, Mueller Hinton broth dilution, read-out: MIC): 0.395 µg/mL (≈ 0.244 µM)
- MIC (MRSA DM21455 [5]; MRSA-21455 (Eye), Example 10, Mueller Hinton broth dilution, read-out: MIC): 0.78 µg/mL (≈ 0.481 µM)
- MIC (MRSA DM09808R; MRSA-09808R (Eye), Example 10, Mueller Hinton broth dilution, read-out: MIC): 0.195 µg/mL (≈ 0.12 µM)

SMILES: CC[C@@H](CO)NCCN[C@@H](CC)CO [Ethambutol]
- MIC [14]: 20 µM (≈ 4.09 µg/mL)

SMILES: CN[C@H](CC(C)C)C(=O)N[C@H]1C(=O)N[C@@H](CC(N)=O)C(=O)N[C@H]2C(=O)N[C@H]3C(=O)N[C@H](C(=O)N[C@H](C(=O)O)c4cc(O)cc(O)c4-c4cc3ccc4O)[C@H](O)c3ccc(c(Cl)c3)Oc3cc2cc(c3O[C@@H]2O[C@H](CO)[C@@H](O)[C@H](O)[C@H]2O[C@H]2C[C@](C)(N)[C@H](O)[C@H](C)O2)Oc2ccc(cc2Cl)[C@H]1O [Vancomycin, reference compound]
- Minimum inhibitory concentration [15]: Above 100
- Minimum inhibitory concentration [16]: 1.56
- Minimum inhibitory concentration ([13]; S. aureus ATCC 700699 (VISA), no unit in table (Example 10 MICs in μg/ml)): 6.25
- MIC [13]: 6.25 µg/mL (≈ 4.31 µM)
- Minimum inhibitory concentration [17]: 1.56
- MIC (MRSA DR42412; MRSA): 0.78 µg/mL (≈ 0.538 µM)
- MIC (MRSA DM21595; MRSA): 0.78 µg/mL (≈ 0.538 µM)
- Minimum inhibitory concentration [18]: 50
- MIC (MRSA DM21455 [5]; MRSA): 0.78 µg/mL (≈ 0.538 µM)
- MIC (MRSA DM09808R; MRSA): 0.395 µg/mL (≈ 0.273 µM)
- Development of drug resistance (MRSA DM21455 [19]): develops drug resistance more quickly
